Assay results reported in patent US20230391763A1, “MODULATORS OF THE INTEGRATED STRESS RESPONSE PATHWAY” (Evotec International GmbH, priority 2020, published 2023).

System: Tunicamycin induced ISR (ATF4 signal ratio between nucleus and cytoplasm) in wild-type HEK293 cells
Experiment: HEK-ATF4 High Content Imaging assay
Type: cell-based
Conditions: Homo sapiens, prevention of Tunicamycin induced ISR, 6 h incubation, ATF4 immunofluorescence nucleus/cytoplasm ratio
Description: HEK-ATF4 High Content Imaging Assay
Example compounds were tested in the HEK-ATF4 High Content Imaging assay to assess their pharmacological potency to prevent Tunicamycin induced ISR. Wild-type HEK293 cells were plated in 384-well imaging assay plates at a density of 12,000 cells per well in growth medium (containing DMEM/F12, 10% FBS, 2 mM L-Glutamine, 100 U/mL Penicillin—100 μg/mL Streptomycin) and incubated at 37° C., 5% CO2. 24 h later, the medium was changed to 50 μL assay medium per well (DMEM/F12, 0.3% FBS, 2 mM L-Glutamine, 100 U/mL Penicillin—100 μg/mL Streptomycin). Example compounds were serially diluted in DMSO, spotted into intermediate plates and prediluted with assay medium containing 3.3 μM Tunicamycin to give an 11-fold excess of final assay concentration. In addition to the example compound testing area, the plates also contained multiples of control wells for assay normalization purposes, wells containing Tunicamycin but no example compounds (High control), as well as wells containing neither example compound nor Tunicamycin (Low control). The assay was started by transferring 5 μL from the intermediate plate into the assay plates, followed by incubation for 6 h at 37° C., 5% CO2. Subsequently, cells were fixed (4% PFA in PBS, 20 min at r.t.) and submitted to indirect ATF4 immunofluorescence staining (primary antibody rabbit anti ATF4, clone D4B8, Cell Signaling Technologies; secondary antibody Alexa Fluor 488 goat anti-rabbit IgG (H+L), Thermofisher Scientific). Nuclei were stained using Hoechst dye (Thermofisher Scientific), and plates were imaged on an Opera Phenix High Content imaging platform equipped with 405 nm and 488 nm excitation. Finally, images were analyzed using script based algorithms. The main readout HEK-ATF4 monitored the ATF4 signal ratio between nucleus and cytoplasm. Tunicamycin induced an increase in the overall ATF4 ratio signal, which was prevented by ISR modulating example compounds. In addition, HEK-CellCount readout was derived from counting the number of stained nuclei corresponding to healthy cells. This readout served as an internal toxicity control.

`Cc1cc(C(=O)N[C@H]2CC[C@H](c3nnc(OCCOC(F)(F)F)o3)NC2)ccc1Cl` [Example 31, 4-chloro-3-methyl-N-[(3S,6R)-6-{5-[2-(trifluoromethoxy)ethoxy]-1,3,4-oxadiazol-2-yl}piperidin-3-yl]benzamide] was tested. Which IC50 did it give?
Its IC50 is 2000 to 15000 nM.

How did the IC50 turn out when `O=C(N[C@H]1CC[C@H](c2nnc(OCCOC(F)(F)F)o2)NC1)c1ccc2cc(C(F)(F)F)ccc2n1` [Example 2, N-[(3S,6R)-6-{5-[2-(trifluoromethoxy)ethoxy]-1,3,4-oxadiazol-2-yl}piperidin-3-yl]-6-(trifluoromethyl)quinoline-2-carboxamide] was run?
Its IC50 is 1 to 500 nM.

With `O=C(N[C@H]1CC[C@H](c2nnc(OCCOC(F)(F)F)o2)NC1)c1cc2ccc(Cl)cn2c1` [Example 21, 6-chloro-N-[(3S,6R)-6-{5-[2-(trifluoromethoxy)ethoxy]-1,3,4-oxadiazol-2-yl}piperidin-3-yl]indolizine-2-carboxamide] as the compound, how does the IC50 read?
Its IC50 is 1 to 500 nM.

With `O=C(N[C@H]1CC[C@H](c2nnc(OCCOC(F)(F)F)o2)NC1)c1ccc(OCC(F)(F)F)nc1` [Example 13, 6-(2,2,2-trifluoroethoxy)-N-[(3S,6R)-6-{5-[2-(trifluoromethoxy)ethoxy]-1,3,4-oxadiazol-2-yl}piperidin-3-yl]pyridine-3-carboxamide] as the compound, how does the IC50 read?
Its IC50 is 2000 to 15000 nM.

How did the IC50 turn out when `O=C(N[C@H]1CC[C@H](c2nnc(OCCOC(F)(F)F)o2)NC1)c1cnc2cc(Cl)ccc2c1` [Example 3, 7-chloro-N-[(3S,6R)-6-{5-[2-(trifluoromethoxy)ethoxy]-1,3,4-oxadiazol-2-yl}piperidin-3-yl]quinoline-3-carboxamide] was run?
The IC50 was 1 to 500 nM.

How did the IC50 turn out when `O=C(N[C@H]1CC[C@H](c2nnc(OC/C=C/C(F)(F)F)o2)NC1)c1cnc2cc(Cl)ccc2c1` [Example 48, 7-chloro-N-[(3S,6R)-6-[5-[(E)-4,4,4-trifluorobut-2-enoxy]-1,3,4-oxadiazol-2-yl]-3-piperidyl]quinoline-3-carboxamide] was run?
Its IC50 is 1 to 500 nM.

How did the IC50 turn out when `O=C(N[C@H]1CC[C@H](c2nnc(OCCOC(F)(F)F)o2)NC1)c1ccc(C(F)(F)F)c(Cl)c1` [Example 36, 3-chloro-N-[(3S,6R)-6-{5-[2-(trifluoromethoxy)ethoxy]-1,3,4-oxadiazol-2-yl}piperidin-3-yl]-4-(trifluoromethyl)benzamide] was run?
Its IC50 is 2000 to 15000 nM.

For `O=C(N[C@H]1CC[C@H](c2nnc(OCCOC(F)(F)F)o2)NC1)c1cccc(Cl)c1` [Example 23, 3-chloro-N-[(3S,6R)-6-{5-[2-(trifluoromethoxy)ethoxy]-1,3,4-oxadiazol-2-yl}piperidin-3-yl]benzamide], which IC50 is on record?
The IC50 was 2000 to 15000 nM.

How did the IC50 turn out when `O=C(N[C@H]1CC[C@H](c2nnc(OCCOC(F)(F)F)o2)NC1)c1ccc(OC(F)(F)F)nc1` [Example 16, 6-(trifluoromethoxy)-N-[(3S,6R)-6-{5-[2-(trifluoromethoxy)ethoxy]-1,3,4-oxadiazol-2-yl}piperidin-3-yl]pyridine-3-carboxamide] was run?
Its IC50 is 500 to 2000 nM.

`O=C(N[C@H]1CC[C@H](c2nnc(OCCOC(F)(F)F)o2)NC1)c1cnc2c(F)c(Cl)ccc2c1` [Example 19, 7-chloro-8-fluoro-N-[(3S,6R)-6-{5-[2-(trifluoromethoxy)ethoxy]-1,3,4-oxadiazol-2-yl}piperidin-3-yl]quinoline-3-carboxamide] was tested. Which IC50 did it give?
Its IC50 is 1 to 500 nM.

Which IC50 does the source give for `O=C(N[C@H]1CC[C@H](c2nnc(OCCOC(F)(F)F)o2)NC1)c1cc2cc(Cl)ccn2c1` [Example 20, 7-chloro-N-[(3S,6R)-6-{5-[2-(trifluoromethoxy)ethoxy]-1,3,4-oxadiazol-2-yl}piperidin-3-yl]indolizine-2-carboxamide] here?
The IC50 was 1 to 500 nM.

`O=C(N[C@H]1CC[C@H](c2nnc(OCCOC(F)(F)F)o2)NC1)c1ccc(C(F)(F)F)c(F)c1` [Example 33, 3-fluoro-N-[(3S,6R)-6-{5-[2-(trifluoromethoxy)ethoxy]-1,3,4-oxadiazol-2-yl}piperidin-3-yl]-4-(trifluoromethyl)benzamide] was tested. Which IC50 did it give?
The IC50 was 500 to 2000 nM.

For `O=C(N[C@H]1CC[C@H](c2nnc(OCCOC(F)(F)F)o2)NC1)c1ncc2cc(Cl)ccc2n1` [Example 6, 6-chloro-N-[(3S,6R)-6-{5-[2-(trifluoromethoxy)ethoxy]-1,3,4-oxadiazol-2-yl}piperidin-3-yl]quinazoline-2-carboxamide], which IC50 is on record?
Its IC50 is 1 to 500 nM.

With `O=C(N[C@H]1CC[C@H](c2nnc(OCCOC(F)(F)F)o2)NC1)c1cc2cc(Cl)ccc2o1` [Example 9, 5-chloro-N-[(3S,6R)-6-{5-[2-(trifluoromethoxy)ethoxy]-1,3,4-oxadiazol-2-yl}piperidin-3-yl]-1-benzofuran-2-carboxamide] as the compound, how does the IC50 read?
Its IC50 is 1 to 500 nM.

For `O=C(N[C@H]1CC[C@H](c2nnc(OCCOC(F)(F)F)o2)NC1)c1cc2ccc(Cl)cc2cn1` [Example 5, 7-chloro-N-[(3S,6R)-6-{5-[2-(trifluoromethoxy)ethoxy]-1,3,4-oxadiazol-2-yl}piperidin-3-yl]isoquinoline-3-carboxamide], which IC50 is on record?
The IC50 was 500 to 2000 nM.

With `O=C(N[C@H]1CC[C@H](c2nnc([C@H]3C[C@@H](OC(F)(F)F)C3)o2)NC1)c1cnc2cc(Cl)ccc2c1` [Example 51, 7-chloro-N-[(3S,6R)-6-{5-[(1s,3s)-3-(trifluoromethoxy)cyclobutyl]-1,3,4-oxadiazol-2-yl}piperidin-3-yl]quinoline-3-carboxamide] as the compound, how does the IC50 read?
The IC50 was 1 to 500 nM.

With `O=C(N[C@H]1CC[C@H](c2nnc(OCCOC(F)(F)F)o2)NC1)c1ccc(Cl)c(Cl)n1` [Example 39, 5,6-dichloro-N-[(3S,6R)-6-{5-[2-(trifluoromethoxy)ethoxy]-1,3,4-oxadiazol-2-yl}piperidin-3-yl]pyridine-2-carboxamide] as the compound, how does the IC50 read?
The IC50 was 2000 to 15000 nM.

How did the IC50 turn out when `Cc1cc(C(=O)N[C@H]2CC[C@H](c3nnc(OCCOC(F)(F)F)o3)NC2)sc1C` [Example 26, 4,5-dimethyl-N-[(3S,6R)-6-{5-[2-(trifluoromethoxy)ethoxy]-1,3,4-oxadiazol-2-yl}piperidin-3-yl]thiophene-2-carboxamide] was run?
Its IC50 is 2000 to 15000 nM.

How did the IC50 turn out when `O=C(N[C@H]1CC[C@H](c2nnc(OCCOC(F)(F)F)o2)NC1)c1ccc(Cl)c(C(F)(F)F)c1` [Example 37, 4-chloro-N-[(3S,6R)-6-{5-[2-(trifluoromethoxy)ethoxy]-1,3,4-oxadiazol-2-yl}piperidin-3-yl]-3-(trifluoromethyl)benzamide] was run?
Its IC50 is 2000 to 15000 nM.

`O=C(N[C@H]1CC[C@H](c2nnc(OCCOC(F)(F)F)o2)NC1)c1ccc(Cl)cc1` [Example 18, 4-chloro-N-[(3S,6R)-6-{5-[2-(trifluoromethoxy)ethoxy]-1,3,4-oxadiazol-2-yl}piperidin-3-yl]benzamide] was tested. Which IC50 did it give?
The IC50 was 2000 to 15000 nM.

Which IC50 does the source give for `Cc1ccc(C(=O)N[C@H]2CC[C@H](c3nnc(OCCOC(F)(F)F)o3)NC2)cc1Cl` [Example 44, 3-chloro-4-methyl-N-[(3S,6R)-6-[5-[2-(trifluoromethoxy)ethoxy]-1,3,4-oxadiazol-2-yl]-3-piperidyl]benzamide] here?
Its IC50 is 500 to 2000 nM.

For `Cc1cc(C)cc(C(=O)N[C@H]2CC[C@H](c3nnc(OCCOC(F)(F)F)o3)NC2)c1` [Example 24, 3,5-dimethyl-N-[(3S,6R)-6-{5-[2-(trifluoromethoxy)ethoxy]-1,3,4-oxadiazol-2-yl}piperidin-3-yl]benzamide], which IC50 is on record?
Its IC50 is 2000 to 15000 nM.

Which IC50 does the source give for `O=C(N[C@H]1CC[C@H](c2nnc(OCCOC(F)(F)F)o2)NC1)c1cn2cc(Cl)cc2cn1` [Example 15, 7-chloro-N-[(3S,6R)-6-{5-[2-(trifluoromethoxy)ethoxy]-1,3,4-oxadiazol-2-yl}piperidin-3-yl]pyrrolo[1,2-a]pyrazine-3-carboxamide] here?
The IC50 was 2000 to 15000 nM.

For `O=C(N[C@H]1CC[C@H](c2nnc(OCCOC(F)(F)F)o2)NC1)c1ccc(F)c(C(F)(F)F)c1` [Example 35, 4-fluoro-N-[(3S,6R)-6-{5-[2-(trifluoromethoxy)ethoxy]-1,3,4-oxadiazol-2-yl}piperidin-3-yl]-3-(trifluoromethyl)benzamide], which IC50 is on record?
The IC50 was 2000 to 15000 nM.

For `O=C(N[C@@H]1CC[C@@H](c2nnc(OCCOC(F)(F)F)o2)NC1)c1cnc2cc(Cl)ccc2c1` [Example 49, 7-chloro-N-[(3R,6S)-6-[5-[2-(trifluoromethoxy)ethoxy]-1,3,4-oxadiazol-2-yl]-3-piperidyl]quinoline-3-carboxamide], which IC50 is on record?
Its IC50 is 1 to 500 nM.

How did the IC50 turn out when `O=C(N[C@H]1CC[C@H](c2nnc(OCCOC(F)(F)F)o2)NC1)c1cc2cc(Cl)ccn2n1` [Example 12, 5-chloro-N-[(3S,6R)-6-{5-[2-(trifluoromethoxy)ethoxy]-1,3,4-oxadiazol-2-yl}piperidin-3-yl]pyrazolo[1,5-a]pyridine-2-carboxamide] was run?
Its IC50 is 500 to 2000 nM.

Which IC50 does the source give for `O=C(N[C@H]1CC[C@H](c2nnc(OCCOC(F)(F)F)o2)NC1)c1ccc(Cl)c(Cl)c1` [Example 17, 3,4-dichloro-N-[(3S,6R)-6-{5-[2-(trifluoromethoxy)ethoxy]-1,3,4-oxadiazol-2-yl}piperidin-3-yl]benzamide] here?
Its IC50 is 500 to 2000 nM.

With `O=C(N[C@H]1CC[C@H](c2nnc(OCCOC(F)(F)F)o2)NC1)c1ccc(Cl)c(OC(F)(F)F)c1` [Example 40, 4-chloro-3-(trifluoromethoxy)-N-[(3S,6R)-6-{5-[2-(trifluoromethoxy)ethoxy]-1,3,4-oxadiazol-2-yl}piperidin-3-yl]benzamide] as the compound, how does the IC50 read?
Its IC50 is 2000 to 15000 nM.
